Test results as given in publication PMC12596218 (Journal of Lipid Research, 2025).
pIC50: −log10 of the molar value. “And” between values parts separate entries of the source, which are not always exact repeats. Equal values may be shown once.

Key:
[1] = biological target: T1, ASBT S294T/I295V (ASBT→mAsbt) (Homo sapiens, UniProt Q12908, I295V/S294T); experiment: [3H]TC transport and inhibition assay, ASBT→mAsbt mutant in HEK293 cells; format: cell-based; conditions: for Inhibition curve/AUC of ASBT→mAsbt mutant compared to wild-type ASBT: 1 μM [3H]TC, 10 min, AUC combined from two experiments
T1 construct: stably transfected with the full open reading frames of human NTCP, ASBT, SOAT, OATP1B1, OATP1B3, OATP2B1, and murine Asbt (mAsbt); expressed in transfected cells; host or cells: HEK293, stably transfected
T1 sequence (Q12908 1-348 S294T/I295V): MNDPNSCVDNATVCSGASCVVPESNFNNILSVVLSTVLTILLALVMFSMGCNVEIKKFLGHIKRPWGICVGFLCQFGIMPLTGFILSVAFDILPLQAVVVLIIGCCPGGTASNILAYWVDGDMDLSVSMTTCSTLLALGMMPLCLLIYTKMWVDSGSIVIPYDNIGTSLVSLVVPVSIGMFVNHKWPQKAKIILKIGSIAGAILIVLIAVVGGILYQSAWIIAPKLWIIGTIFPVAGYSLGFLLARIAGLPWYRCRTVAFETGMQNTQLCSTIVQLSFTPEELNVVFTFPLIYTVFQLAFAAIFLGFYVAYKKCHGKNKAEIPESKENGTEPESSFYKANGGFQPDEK
Description: Amplification was performed on a peqSTAR XS PEQLAB PCR cycler (Peqlab) with Pfu DNA polymerase (M774A; Promega) in 18 cycles under the following conditions: initial denaturation for 2 min at 95°C, denaturation for 30 s at 95°C, annealing for 1 min at 55°C, extension for 8 min and 30 s at 72°C, final elongation for 10 min at 72°C and final hold at 4°C. After amplification, the products were digested with DpnI (ER1701; Thermo Fisher Scientific) for 1 h at 37°C and transformed into TOP10 chemically competent E. coli (Thermo Fisher Scientific). Plasmids were isolated using a GeneJET Plasmid Miniprep Kit (Thermo Fisher Scientific) according to the manufacturer's protocol, and the generated point mutations were verified by DNA sequencing (Seqlab Microsynth).
(§1) Cells were seeded onto poly-L-lysine-coated 96-well plates, induced with 1 μg/ml tetracycline, and grown to confluence over 72 h at 37°C. Then, cells were washed with tempered (37°C) phosphate-buffered saline (PBS, containing 137.0 mM NaCl, 2.7 mM KCl, 1.5 mM KH2PO4, and 7.3 mM Na2HPO4, at pH 7.4) and preincubated with 80 μl sodium transport buffer (STB, containing 142.9 mM NaCl, 4.7 mM KCl, 1.2 mM MgSO4, 1.2 mM KH2PO4, 1.8 mM CaCl2, and 20.0 mM HEPES, at pH 7.4) for 5 min at 37°C. For inhibition studies, the medium was replaced by 80 μl STB containing the respective inhibitor or solvent alone and cells were further incubated for 5 min at 37°C. Transport experiments were started by adding 20 μl of a 5-fold concentrated substrate solution (solved in STB). For transport experiments under sodium-free conditions the same buffer composition was used as for STB, but sodium chloride was substituted with equimolar concentrations of choline chloride as previously reported ([20], [24]). Transport experiments were stopped by washing twice with ice-cold PBS and the plates were kept cool on ice until adding the lysis buffer [1% sodium dodecyl sulfate (SDS) and 1 N NaOH]. Then, the cell-associated radioactivity of the respective tritium-labeled substrate or ligand was quantified by liquid scintillation counting using MicroScint-20 scintillation cocktail (Revvity) in a Packard Microplate Scintillation Counter TopCount NXT (Packard Instrument Company). For IC50 transport inhibition measurements, the mean uptake values measured in non-carrier-expressing HEK293 control cells were defined as 0% uptake control and were subtracted from all other values. Values from cells without inhibitor and solvent alone were set to 100%. Finally, all net transport data were expressed as uptake or binding as % of control. All transport or inhibition graphs were generated with GraphPad Prism 6 (GraphPad). Determination of half maximal inhibitory concentrations (IC50) was done by nonlinear regression analysis using the equation log (inhibitor) versus response—variable slope settings. All data points of the IC50 curves represent means ± SD of quadruplicate determinations. For Km measurements, BS uptake in the absence of sodium was regarded as carrier-independent unspecific uptake and was subtracted from the transport rates in the presence of sodium to obtain carrier-specific uptake rates (indicated as dashed lines). From the specific uptake rates, Michaelis Menten Km values were calculated by non-linear regression analysis.

OATP1B1 = biological target: T2, OATP1B1 (Homo sapiens, UniProt Q9Y6L6); experiment: [3H]E1S transport inhibition assay in OATP1B1-HEK293 cells; format: cell-based; conditions: 200 nM [3H]E1S, 10 min; two independent experiments
T2 construct: stably transfected with the full open reading frames of human NTCP, ASBT, SOAT, OATP1B1, OATP1B3, OATP2B1, and murine Asbt (mAsbt); expressed in transfected cells; host or cells: HEK293, stably transfected (OATP1B1-HEK), tetracycline-induced
T2 sequence (Q9Y6L6 1-691): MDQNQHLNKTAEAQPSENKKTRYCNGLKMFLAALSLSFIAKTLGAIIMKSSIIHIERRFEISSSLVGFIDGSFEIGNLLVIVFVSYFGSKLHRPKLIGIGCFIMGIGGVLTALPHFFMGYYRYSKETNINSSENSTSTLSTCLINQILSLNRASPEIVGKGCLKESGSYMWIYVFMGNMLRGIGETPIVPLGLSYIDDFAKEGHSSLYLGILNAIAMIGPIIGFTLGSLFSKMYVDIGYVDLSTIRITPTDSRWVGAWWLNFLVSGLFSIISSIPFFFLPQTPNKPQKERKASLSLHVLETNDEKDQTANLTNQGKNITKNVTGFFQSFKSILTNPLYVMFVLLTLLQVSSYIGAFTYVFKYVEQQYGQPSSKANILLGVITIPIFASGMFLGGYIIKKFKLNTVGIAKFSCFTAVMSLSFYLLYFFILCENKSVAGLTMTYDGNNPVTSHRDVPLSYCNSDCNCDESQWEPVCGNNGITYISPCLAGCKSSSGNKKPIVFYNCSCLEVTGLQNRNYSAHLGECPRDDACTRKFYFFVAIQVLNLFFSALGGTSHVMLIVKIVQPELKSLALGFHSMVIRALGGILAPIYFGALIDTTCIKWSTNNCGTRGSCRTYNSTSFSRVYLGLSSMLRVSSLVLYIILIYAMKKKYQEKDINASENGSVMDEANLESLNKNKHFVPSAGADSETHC
Source text: Human embryonic kidney HEK293 cells, stably transfected with the full open reading frames of human NTCP, ASBT, SOAT, OATP1B1, OATP1B3, OATP2B1, and murine Asbt (mAsbt) were used as reported ([18], [20], [21], [22], [23]). The NTCP, ASBT, and mAsbt constructs were C-terminally tagged with the FLAG epitope, and the SOAT construct was C-terminally tagged with green fluorescent protein. Non-transfected Flp-In HEK293 cells (Thermo Fisher Scientific) served as the control. All cell lines were maintained at 37°C, 5% CO2 and 95% humidity in DMEM/F-12 medium (Thermo Fisher Scientific) supplemented with 10% fetal calf serum (Sigma-Aldrich), 4 mM L-glutamine (PAA) and penicillin/streptomycin (PAA). Expression of the respective carrier protein was induced by tetracycline treatment at 1 μg/ml (Carl Roth GmbH + Co. KG).
as §1

Structure (SMILES)	Inhibition curve/AUC of ASBT→mAsbt mutant compared to wild-type ASBT [1]	pIC50 (OATP1B1)	Transport inhibition at highest substrate concentration ([1]; 500 μM [3H]TC)	IC50 values at increasing substrate concentrations (in words) ([1]; [3H]TC 0.3-500 μM)
CCCCC1(CCCC)CN(c2ccccc2)c2cc(SC)c(OCC(=O)N[C@@H](C(=O)NCC(=O)O)c3ccccc3)cc2S(=O)(=O)C1 [elobixibat]	not different	5.35 and 5.36	–	–
CCCCC1(CCCC)CS(=O)(=O)c2ccc(N(C)C)cc2[C@@H](c2ccc(OCc3ccc(C[N+]45CCN(CC4)CC5)cc3)cc2)[C@H]1O [maralixibat]	–	5.05 and 5.08	–	–
CCCCC1(CCCC)CN(c2ccccc2)c2cc(SC)c(OCC(=O)N[C@@H](C(=O)N[C@@H](CC)C(=O)O)c3ccc(O)cc3)cc2S(=O)(=O)N1 [odevixibat]	not different	5.40 and 5.80	–	–
CCCCC1(CCCC)CS(=O)(=O)c2ccc(N(C)C)cc2[C@@H](c2ccc(OCCCC[N+]34CCN(CC3)CC4)cc2)[C@H]1O [SC-435]	this effect was also observed	< 5.00 and 4.38 and 4.51	–	–
CCCC[C@]1(CC)CS(=O)(=O)c2cc(CNC(CC(=O)O)CC(=O)O)c(OC)cc2[C@@H](c2ccccc2)N1 [linerixibat]	significantly reduced the AUC values	< 5.00 and 4.54 and 4.92	full transport inhibition	remained quite stable
